In experiment [1] the test system is 5-HETE synthesis by rat glycogen-elicited polymorphonuclear leukocytes. The experiment is described as follows: Inhibition of 5-HETE synthesis by rat glycogen-elicited polymorphonuclear leukocytes (lipoxygenase). The class given is cell-based, rat (female Wistar). As to conditions: Leukocyte, rat PMN, A23187 stimulated; for inhibition at 50 µM: read-out: >50% Inhibitory at 50 μm (5-HETE synthesis). As for the experimental part:
The assay of this Example measures the ability of the compounds of the invention to inhibit the synthesis of 5-HETE by rat glycogen-elicited polymorphonuclear leukocytes.
(§1) Peritoneal PMN are obtained from female Wistar rats (150-250 g) that received an i.p. injection of 6% glycogen (10 mL). After 24 hours, rats are killed by CO2 asphyxiation and peritoneal cells are harvested by peritoneal lavage using Ca^++ and Mg^++ free Hanks' balanced salt solution (HBSS). The peritoneal exudate is centrifuged at 400 g for 10 minutes. After centrifugation, the lavaged fluid is removed and the cell pellet is resuspended in HBSS containing Ca^++ and Mg^++ and 10 mM L-cysteine at a concentration of 2×10^7 cells/mL. To 1 mL portions of cell suspension, test drugs or vehicle are added and incubated at 37° C. for 10 minutes. Following this preincubation, the calcium ionophore (10 μM), A23187, is added together with 0.5 μCi [^14 C] arachidonic acid and further incubated for 10 minutes. The reaction is stopped by the addition of ice cold water (3 mL) and acidifying to pH 3.5. Lipoxygenase products are then extracted twice into diethyl ether. The pooled ether extracts are evaporated to dryness under nitrogen and the residue is redissolved in a small volume of methanol and spotted on aluminum backed pre-coated thin layer chromatographic plates. The samples are then co-chromatographed with authentic reference 5-HETE, in the solvent system--hexane:ether:acetic acid (50:50:3). After chromatography, the areas associated with 5-HETE standard are identified by autoradiography, cut out and quantitated by liquid scintillation.
The compounds of this invention are tested in this assay at a level of 50 μm, unless otherwise noted. The results are summarized in Table 1, where those compounds having an inhibition of >50% are designated by a "+". Some results are express as an IC50 value.

Experiment [2] has as its system synthesis of cyclooxygenase oxidation product TxB2. The experiment in a line: Inhibition of synthesis of cyclooxygenase product TxB2 (rat polymorphonuclear leukocytes, procedure of Example 17). The class given is cell-based, rat (female Wistar). As to conditions: Leukocyte, rat PMN; for IC50: TxA2. On the procedure: as §1
(§2) The procedure of Example 17 is also employed for the determination of the ability of the compounds of the invention to inhibit the synthesis of the arachidonic acid cyclooxygenase oxidation products TxB2 and PGE2.
In this assay, the procedure of Example 17 is carried out as described. However, in order to determine cyclooxygenase activity, the samples are cochromatographed with authentic reference TxB2 and PGE2 in the solvent system ethyl acetate:formic acid (80:1) and the upper phase of ethyl acetate:isoctane:acetic acid:water (110:50:20:100). After chromatography, the areas associated with TxB2 and PGE2 standards are identified by autoradiography, cut out and quantitated by liquid scintillation techniques.
(§3) The results are calculated as in Example 17.

The test system of experiment [3] is synthesis of cyclooxygenase oxidation product PGE2. The experiment is described as follows: Inhibition of synthesis of cyclooxygenase product PGE2 (rat polymorphonuclear leukocytes, procedure of Example 17). As to conditions: Leukocyte; rat PMN. The class given is cell-based, rat (female Wistar). On the procedure: as §1, §2
In this assay, the procedure of Example 17 is carried out as described. […] After chromatography, the areas associated with TxB2 and PGE2 standards are identified by autoradiography, cut out and quantitated by liquid scintillation techniques.
as §3

The subject of experiment [4] is AA-induced mouse ear edema. The experiment in a line: Arachidonic acid (AA)-induced murine ear edema test, topical. The class given is in vivo, mouse (Swiss Webster female). Conditions: for % Change from Control, TOPICAL, AA: AA 1 mg/ear (footnote a), * = <0.05. The text has this: (§4) The ability of the compounds of the invention to inhibit the lipoxygenase and/or cyclooxygenase pathways of arachidonic acid is examined in the in vivo arachidonic acid (AA)-/12-O-tetradecanoylphorbol acetate (TPA)-induced murine ear edema test.
(§5) According to this test, Swiss Webster female mice (Buckshire), approximately 8 weeks old, are placed into plastic boxes in groups of six. Eight groups of mice receive AA topically on the right ear, and another 8 groups receive TPA topically on the right ear. AA and TPA are dissolved in acetone at concentrations of 100 mg/mL and 100 μg/mL respectively. The phlogistics are applied to the right ear by the means of an automatic pipet. Volumes of 10 μL are applied to the inner and outer surfaces of the ear. […] The left ear (control) receives acetone delivered in the same manner. Oral and topical dosing regimens are as follows: (1) drugs are given 30 minutes prior to AA treatment, and (2) drugs are given 30 minutes after treatment with TPA.
(§6) Measurements are taken with Oditest calipers, 0-10 mm with 0.01 graduations. The right and left ears are measured after 1 hour AA-induced inflammation and 4 hours after TPA-induced inflammation.
(§7) The difference between right and left ear thickness is calculated and the significance is determined by a one way analysis of variance with Dunnett's comparisons to control (P=0.05). Drug effects are expressed as a percent change from control values: [formula]
(§8) The ED50 values are also given for these compounds where this has been determined.

Experiment [5] concerns TPA-induced mouse ear edema. The experiment is described as follows: 12-O-tetradecanoylphorbol acetate (TPA)-induced murine ear edema test, topical. It counts as in vivo, mouse (Swiss Webster female). As to conditions: for % Change from Control, TOPICAL, TPA: TPA 10 μg/ear (footnote b), * = <0.05.
Excerpt: as §4, §5, §6, §7, §8

Experiment [6] relates to ovalbumin induced bronchospasm. The experiment is described as follows: Inhibition of ovalbumin-induced bronchospasm mediated by endogenous mediators in sensitized guinea pigs. As to conditions: 50 mg/kg intraduodenal, 10 minutes before intravenous ovalbumin challenge. It counts as in vivo, guinea pig (male Hartley). On the procedure: The assay of this Example measures the in vivo ability of the compounds of the invention to inhibit the bronchospasm induced in guinea pigs by endogenous mediators of the bronchoconstriction.
Male Hartley strain guinea pigs weighing 250-350 g are sensitized to chicken ovalbumin (OA) (10 mg i.p.) on days 1 and 3 and used starting on day 26. The animals are anesthetized with pentobarbital sodium (50 mg/kg, i.p.), bilateral vagotomy is performed, and the jugular vein is cannulated for injection of drugs and the carotid artery for monitoring blood pressure. The trachea is cannulated for artificial ventilation by a miniature Starling pump and for indirect measurement of respiratory volume changes as described, infra. Succinylcholine (2 mg/kg, i.v.) is administered to arrest spontaneous respiration. […]
Respiratory volume changes are determined by a calibrated piston whose travel is recorded, via a linear transducer, on a Beckman Dynograph recorder. Maximal bronchoconstrictor volume is determined by clamping off the trachea at the end of the experiment. Overflow volumes at minutes 1, 3 and 5 are obtained from the recorded charts.
Area under the volume overflow curve (AUC) is estimated, using the overflow values at 1, 3 and 5 minutes, and expressed as a percentage of the maximal overflow AUC (equation 1): [formula] […]

Bounds are passed on as bounds.

As for `c1ccc2nc(COc3cccc4ccccc34)ccc2c1` [Example 10, 2-[(1-Naphthalenyloxy)methyl]quinoline], the inhibition at 50 µM in experiment [1] and in experiment [2] was greater than 50% each time. Further, the IC50 is 0.4 µM in experiment [1], 6.3 µM in experiment [2] and greater than 100 µM in experiment [3]. Further, the “TOPICAL ED50, AA” value in experiment [4] is on record as 0.3 mg/ear. In addition, the “TOPICAL ED50, TPA” value in experiment [5] is reported as 0.7 mg/ear.

In the case of `Brc1ccc(SCc2nc3ccccc3s2)cc1` [Example 13], the inhibition at 50 µM in experiment [1] and in experiment [2] was greater than 50% each time.

For `FC(F)(F)c1cccc(OCc2ccc3ccccc3n2)c1` [Example 16, 2-[[3-(trifluoromethyl)phenoxy]methyl]quinoline], the inhibition at 50 µM in experiment [1] was greater than 50%. Also, the “% Change from Control, TOPICAL, AA” value in experiment [4] worked out at 35%. The “% Change from Control, TOPICAL, TPA” value in experiment [5] is listed as 22%.

With `Brc1cccc(SCc2nc3ccccc3s2)c1` [Example 14], the inhibition at 50 µM in experiment [1] and in experiment [2] was greater than 50% throughout.

As for `Clc1ccc(OCc2ccc3ccccc3n2)cc1Cl` [Example 7, 2-[(3,4-Dichlorophenoxy)methyl]quinoline], the inhibition at 50 µM in experiment [1] and in experiment [2] was greater than 50% each time. Moreover, the “% Change from Control, TOPICAL, AA” value in experiment [4] is -54%. For the same molecule, the “% Change from Control, TOPICAL, TPA” value in experiment [5] is given as -21%.

As to `c1ccc2cc(OCc3ccc4ccccc4n3)ccc2c1` [Example 9, 2-[(2-Naphthalenyloxy)methyl]quinoline], the inhibition at 50 µM in experiment [1] and in experiment [2] was greater than 50% each time.

With `Clc1ccc(OCc2ccc3ccccc3n2)cc1` [Example 4, 2-[(4-Chlorophenoxy)methyl]quinoline], the inhibition at 50 µM in experiment [1] is greater than 50%. In experiment [2], this molecule displayed an inhibition at 50 µM greater than 50%. Also, in experiment [4], the “TOPICAL ED50, AA” value was 1.3 mg/ear and the “% Change from Control, TOPICAL, AA” value is recorded as -43%. Further, in experiment [5], the “% Change from Control, TOPICAL, TPA” value is given as -45%.

Regarding `Clc1cccc(OCc2ccc3ccccc3n2)c1` [Example 3, 2-[(3-Chlorophenoxy)methyl]quinoline], the inhibition at 50 µM in experiment [1] and in experiment [2] was greater than 50% throughout. For the same molecule, the IC50 was 1.5 µM in experiment [1], 7.2 µM in experiment [2] and greater than 100 µM in experiment [3]. The “TOPICAL ED50, AA” value in experiment [4] was 0.3 mg/ear. Further, the “% Change from Control, TOPICAL, AA” value in experiment [4] is -67%. Besides, the “% Change from Control, TOPICAL, TPA” value in experiment [5] is recorded as -60%.

Turning to `Fc1ccccc1OCc1ccc2ccccc2n1` [Example 2, 2-[(2-Fluorophenoxy)methyl]quinoline], the inhibition at 50 µM in experiment [1] and in experiment [2] was greater than 50% in each case. For the same molecule, the “% Change from Control, TOPICAL, AA” value in experiment [4] is recorded as -40%. Moreover, the “% Change from Control, TOPICAL, TPA” value in experiment [5] is -42%.

As to `c1ccc2nc(COc3cccc4cccnc34)ccc2c1` [Example 15, 2-[(8-quinolinyloxy)-methyl]quinoline], the inhibition at 50 µM in experiment [1] is greater than 50%. Moreover, in experiment [4], the “% Change from Control, TOPICAL, AA” value amounted to 52%. Besides, in experiment [5], the “% Change from Control, TOPICAL, TPA” value is on record as 53%.

In the case of `Brc1ccccc1OCc1ccc2ccccc2n1` [Example 8, 2-[(2-Bromophenoxy)methyl]quinoline], the inhibition at 50 µM in experiment [1] and in experiment [2] was greater than 50% in each case. Further, the “% Change from Control, TOPICAL, AA” value in experiment [4] is given as -32%. Besides, the “% Change from Control, TOPICAL, TPA” value in experiment [5] was -14%.

On to `Brc1c(OCc2ccc3ccccc3n2)ccc2ccccc12` [Example 11, 2-[(1-Bromo-2-naphthalenyloxy)methyl]quinoline], for which the inhibition at 50 µM in experiment [1] and in experiment [2] was greater than 50% in each case.

Take `Brc1cccc(OCc2ccc3ccccc3n2)c1` [Example 1, 2-[(3-Bromophenoxy)methyl]quinoline]: in experiment [1], the inhibition at 50 µM was greater than 50%. The inhibition at 50 µM in experiment [2] was greater than 50%. Further, the “% Inhibition of MAX AUC” value in experiment [6] is greater than 50%. In addition, in experiment [4], the “TOPICAL ED50, AA” value is on record as 2.0 mg/ear and the “% Change from Control, TOPICAL, AA” value is recorded as -43%. Further, in experiment [5], the “TOPICAL ED50, TPA” value is 0.7 mg/ear and the “% Change from Control, TOPICAL, TPA” value is reported as -62%.

For the molecule `Brc1ccc(OCc2ccc3ccccc3n2)cc1` [Example 6, 2-[(4-Bromophenoxy)methyl]quinoline], the inhibition at 50 µM in experiment [1] and in experiment [2] was greater than 50% each time. Moreover, the “% Change from Control, TOPICAL, AA” value in experiment [4] is given as -36%. Also, in experiment [5], the “% Change from Control, TOPICAL, TPA” value was -22%.

In the case of `Fc1cccc(OCc2ccc3ccccc3n2)c1` [Example 5, 2-[(3-Fluorophenoxy)methyl]quinoline], in experiment [1], the inhibition at 50 µM was greater than 50% and the IC50 was 9.9 µM. For the same molecule, in experiment [2], the inhibition at 50 µM was greater than 50% and the IC50 was determined as 3.2 µM. Besides, the IC50 in experiment [3] was greater than 100 µM. Further, in experiment [4], the “TOPICAL ED50, AA” value was 0.3 mg/ear and the “% Change from Control, TOPICAL, AA” value is given as -63%. In experiment [5], the “TOPICAL ED50, TPA” value was 1.6 mg/ear and the “% Change from Control, TOPICAL, TPA” value is reported as -47%.

Values taken from patent US4732978A, “Novel substituted naphthyloxymethyl quinoline derivatives as anti-inflammatory and antiallergy agents” (American Home Products Corporation, priority 1986, dated 1988).
